# Laboratory results: ChEMBL document CHEMBL3046536, “Synthesis, crystal structure, and insecticidal activity of novel N-alkyloxyoxalyl derivatives of 2-arylpyrrole” (2008)
# Key:
# Assay type in all cases: functional
# [1] = tested on: Mythimna separata; test: Insecticidal activity against Mythimna separata (Oriental armyworm) fourth-instar larvae infested compound pre-treated corn leaves assessed as insect mortality at 10 mg/kg measured 2 days post compound treatment
# [2] = tested on: Tetranychus cinnabarinus; test: Insecticidal activity against Tetranychus cinnabarinus (carmine spider mite) infested on Sieva bean plants leaves exposed to compound formulation at 100 mg/kg assessed as insect mortality measured 2 days post compound treatment; settings: 48 h
# [3] = tested on: Tetranychus cinnabarinus; test: Insecticidal activity against Tetranychus cinnabarinus (carmine spider mite) infested on Sieva bean plants leaves exposed to compound formulation at 200 mg/kg assessed as insect mortality measured 2 days post compound treatment; settings: 48 h
# [4] = tested on: Tetranychus cinnabarinus; test: Insecticidal activity against Tetranychus cinnabarinus (carmine spider mite) infested on Sieva bean plants leaves exposed to compound formulation at 50 mg/kg assessed as insect mortality measured 2 days post compound treatment; settings: 48 h
# [5] = tested on: Mythimna separata; test: Insecticidal activity against Mythimna separata (Oriental armyworm) fourth-instar larvae infested compound pre-treated corn leaves assessed as insect mortality at 20 mg/kg measured 2 days post compound treatment
# [6] = tested on: Culex pipiens pallens; test: Insecticidal activity against Culex pipiens pallens (mosquito) fourth-instar larvae assessed as insect mortality at 0.5 mg/kg measured 2 days post compound treatment; settings: 48 h
# [7] = tested on: Culex pipiens pallens; test: Insecticidal activity against Culex pipiens pallens (mosquito) fourth-instar larvae assessed as insect mortality at 0.25 mg/kg measured 2 days post compound treatment; settings: 48 h
# [8] = tested on: Culex pipiens pallens; test: Insecticidal activity against Culex pipiens pallens (mosquito) fourth-instar larvae assessed as insect mortality at 0.1 mg/kg measured 2 days post compound treatment; settings: 48 h
# [9] = tested on: Mythimna separata; test: Insecticidal activity against Mythimna separata (Oriental armyworm) fourth-instar larvae infested compound pre-treated corn leaves assessed as insect mortality at 5 mg/kg measured 2 days post compound treatment
SMILES,mortality at 10 mg/kg [1] [%],mortality at 100 mg/kg [2] [%],mortality at 200 mg/kg [3] [%],mortality at 50 mg/kg [4] [%],mortality at 20 mg/kg [5] [%],mortality at 0.5 mg/kg [6] [%],mortality at 0.25 mg/kg [7] [%],mortality at 0.1 mg/kg [8] [%],mortality at 5 mg/kg [9] [%]
C/C=C/NC(=O)C(=O)OCn1c(-c2ccc(Cl)cc2)c(C#N)c(Br)c1C(F)(F)F,15,93,96,89,100,,,,
N#Cc1c(Br)c(C(F)(F)F)n(COC(=O)C(=O)NC2CCCCC2)c1-c1ccc(Cl)cc1,20,46,76,,100,100,90,20,
N#Cc1c(Br)c(C(F)(F)F)n(COC(=O)C(=O)Nc2ccccc2)c1-c1ccc(Cl)cc1,0,92,99,86,100,100,30,0,
Cc1ccccc1NC(=O)C(=O)OCn1c(-c2ccc(Cl)cc2)c(C#N)c(Br)c1C(F)(F)F,10,,,,100,100,100,100,
Cc1ccc(NC(=O)C(=O)OCn2c(-c3ccc(Cl)cc3)c(C#N)c(Br)c2C(F)(F)F)cc1,10,90,96,79,100,100,100,40,
N#Cc1c(Br)c(C(F)(F)F)n(COC(=O)C(=O)Nc2ccccc2Cl)c1-c1ccc(Cl)cc1,30,51,71,,100,,,,
N#Cc1c(Br)c(C(F)(F)F)n(COC(=O)C(=O)Nc2ccc(Cl)cc2)c1-c1ccc(Cl)cc1,20,92,100,84,100,100,10,0,
CC(C)COC(=O)C(=O)OCn1c(-c2ccc(Cl)cc2)c(C#N)c(Br)c1C(F)(F)F,100,,100,,100,100,90,10,0
CCC(C)OC(=O)C(=O)OCn1c(-c2ccc(Cl)cc2)c(C#N)c(Br)c1C(F)(F)F (stereo not drawn),100,,100,,100,100,90,10,0
CC(C)(C)OC(=O)C(=O)OCn1c(-c2ccc(Cl)cc2)c(C#N)c(Br)c1C(F)(F)F,10,,,,100,,,,
N#Cc1c(Br)c(C(F)(F)F)n(COC(=O)C(=O)OCC2CCCC2)c1-c1ccc(Cl)cc1,30,90,100,84,100,100,100,20,
N#Cc1c(Br)c(C(F)(F)F)n(COC(=O)C(=O)OC2CCCCC2)c1-c1ccc(Cl)cc1,20,,,,100,100,90,20,
C/C=C/OC(=O)C(=O)OCn1c(-c2ccc(Cl)cc2)c(C#N)c(Br)c1C(F)(F)F,30,,,,100,100,100,80,
N#Cc1c(Br)c(C(F)(F)F)n(COC(=O)C(=O)OCCF)c1-c1ccc(Cl)cc1,10,92,100,83,100,100,100,100,
N#Cc1c(Br)c(C(F)(F)F)n(COC(=O)C(=O)OCC(F)(F)F)c1-c1ccc(Cl)cc1,10,95,100,92,70,100,30,0,
COCCOC(=O)C(=O)OCn1c(-c2ccc(Cl)cc2)c(C#N)c(Br)c1C(F)(F)F,20,95,100,94,100,100,90,20,
CCOCCOC(=O)C(=O)OCn1c(-c2ccc(Cl)cc2)c(C#N)c(Br)c1C(F)(F)F,20,,,,100,100,100,80,
CCCNC(=O)C(=O)OCn1c(-c2ccc(Cl)cc2)c(C#N)c(Br)c1C(F)(F)F,25,,,,100,100,100,80,
CC(C)NC(=O)C(=O)OCn1c(-c2ccc(Cl)cc2)c(C#N)c(Br)c1C(F)(F)F,20,95,100,87,100,100,80,30,
CCCCNC(=O)C(=O)OCn1c(-c2ccc(Cl)cc2)c(C#N)c(Br)c1C(F)(F)F,0,0,48,,100,100,90,20,
CCC(C)NC(=O)C(=O)OCn1c(-c2ccc(Cl)cc2)c(C#N)c(Br)c1C(F)(F)F (stereo not drawn),30,,,,100,,,,
CC(C)(C)NC(=O)C(=O)OCn1c(-c2ccc(Cl)cc2)c(C#N)c(Br)c1C(F)(F)F,20,,,,100,100,30,10,
COC(=O)C(=O)OCn1c(-c2ccc(Cl)cc2)c(C#N)c(Br)c1C(F)(F)F,15,,,,100,,,,
CCOC(=O)C(=O)OCn1c(-c2ccc(Cl)cc2)c(C#N)c(Br)c1C(F)(F)F,80,,,,100,,,,
CCCOC(=O)C(=O)OCn1c(-c2ccc(Cl)cc2)c(C#N)c(Br)c1C(F)(F)F,100,,100,,100,100,100,10,0
CC(C)OC(=O)C(=O)OCn1c(-c2ccc(Cl)cc2)c(C#N)c(Br)c1C(F)(F)F,70,,100,,100,100,100,20,
CCCCOC(=O)C(=O)OCn1c(-c2ccc(Cl)cc2)c(C#N)c(Br)c1C(F)(F)F,100,,,,100,,,,
CCOCn1c(-c2ccc(Cl)cc2)c(C#N)c(Br)c1C(F)(F)F [CHLORFENAPYR],100,97,100,93,100,100,100,100,0
